From ChEMBL document CHEMBL1130002, “Synthesis and biological evaluation of the 1,5-diarylpyrazole class of cyclooxygenase-2 inhibitors: identification of 4-[5-(4-methylphenyl)-3-(trifluoromethyl)-1H-pyrazol-1-yl]benze nesulfonamide (SC-58635, celecoxib)” (J Med Chem, 1997)

Columns and labels:
Rattus norvegicus [1] = organism: Rattus norvegicus; assay: animal or person; type: functional
Description: Effective dose was determined in vivo in male lewis rats by rat adjuvant-induced arthritis assay

Rattus norvegicus [2] = organism: Rattus norvegicus; assay: animal or person; type: functional; remark: listed apart in the source
Rattus norvegicus [3] = organism: Rattus norvegicus; assay: animal or person; type: functional; remark: listed apart in the source
Description: Effective dose was determined in vivo in male Dawley rats by rat carrageenan-induced hyperalgesia assay

in vivo [4] = conditions: male, rat, po, 10 mg/kg
Rattus norvegicus [5] = organism: Rattus norvegicus; assay: animal or person; type: functional; remark: listed apart in the source
in vivo [6] = conditions: male, rat, po, 20 mg/kg
in vivo [7] = conditions: male, rat, po, 10 mg/kg; remark: listed apart in the source
in vivo [8] = conditions: male, rat, iv, 10 mg/kg
Rattus norvegicus [9] = organism: Rattus norvegicus; type: functional, Stomach
Description: Concentration at which gastric damage will occur was determined in rat

Rattus norvegicus [10] = organism: Rattus norvegicus; assay: animal or person; conditions: read-out: Inhibition
Description: Percent inhibition was determined in vivo in male Dawley rats at a dose of 10 mg/kg by rat carrageenan-induced hyperalgesia assay

| Structure (SMILES) | ED50 (Rattus norvegicus [1]) [mg/kg] | ED50 (Rattus norvegicus [2]) [mg/kg] | ED50 (Rattus norvegicus [3]) [mg/kg] | half-life (in vivo [8]) [h] | also measured |
| --- | --- | --- | --- | --- | --- |
| NS(=O)(=O)c1ccc(-n2nc(C(F)(F)F)c(Cl)c2-c2ccc(Cl)cc2)cc1 | 0.006 | 8.8 |  |  |  |
| Cc1ccc(-c2cc(C(F)F)nn2-c2ccc(S(N)(=O)=O)cc2)cc1 | 0.35 | 2.4 | 37.3 |  | half-life (in vivo [4]): 3.3 h |
| COc1ccc(-c2cc(C(F)F)nn2-c2ccc(S(N)(=O)=O)cc2)cc1 | 0.01 | 13.7 | 36 |  |  |
| NS(=O)(=O)c1ccc(-n2nc(C(F)(F)F)cc2-c2ccc(Cl)cc2)cc1 | 0.07 | 5.4 |  |  | ED50 (Rattus norvegicus [5]): 6.6 mg/kg; half-life (in vivo [6]): 117 h |
| N#Cc1cc(-c2ccc(F)cc2)n(-c2ccc(S(N)(=O)=O)cc2)n1 | 0.51 | 7.5 | 67.1 |  |  |
| COc1ccc(-c2cc(C(F)(F)F)nn2-c2ccc(S(N)(=O)=O)cc2)cc1 |  |  |  |  | half-life (in vivo [7]): 5.6 h |
| NS(=O)(=O)c1ccc(-n2nc(C(F)F)cc2-c2ccc(Cl)cc2)cc1 | 0.63 | 13 | 7.7 | 4.5 |  |
| Cc1ccc(-c2cc(C(F)(F)F)nn2-c2ccc(S(N)(=O)=O)cc2)cc1 [CELECOXIB] | 0.37 | 7.1 | 34.5 | 3.5 |  |
| COc1ccc(-c2cc(C(F)F)nn2-c2ccc(S(N)(=O)=O)cc2)cc1F [DERACOXIB] | 0.05 | 18.6 | 33 | 3.5 |  |
| COc1ccc2c(c1)c(CC(=O)O)c(C)n2C(=O)c1ccc(Cl)cc1 [INDOMETHACIN] | 0.11 | 1.15 | 4.1 |  | Ulceration (Rattus norvegicus [9]): 7 mg/kg |
| COc1ccc2cc([C@H](C)C(=O)O)ccc2c1 [NAPROXEN] |  | 1.6 |  |  | Ulceration (Rattus norvegicus [9]): 255 mg/kg; inhibition in vivo at 10 mg/kg (Rattus norvegicus [10]): 66% |
| CN1C(C(=O)Nc2ccccn2)=C(O)c2ccccc2S1(=O)=O [PIROXICAM] |  | 2.4 |  |  | inhibition in vivo at 10 mg/kg (Rattus norvegicus [10]): 52% |
| CS(=O)(=O)c1ccc(-n2nc(C(F)(F)F)cc2-c2ccc(F)cc2)cc1 [SC-58125] | 0.41 | 10.5 | 58.3 | 221 |  |
